For data set [1] the following is noted: cited from earlier work.
Another data set concerns rabbit eye. To be noted: concentrations of 25%; cited from earlier work.
Data set [2] can be described thus: Safety assessments of Example 4 study (adverse events, nasal irritation, vital signs, ECG). It counts as in vivo, human. As to the method: Sudy Goals. […] Secondary endpoints included adverse events (AEs), vital signs (heart rate, sitting blood pressure, and respiration rate), electrocardiogram (ECG), clinical laboratory changes and nasal irritation using the nasal irritation scale.
On dosing days, the order of assessments were ECG, vital signs, then PK blood collection when scheduled at the same nominal times. The target time of the PK blood collection was considered the most critical and if the collection was more than ±1 minute from the scheduled time for the first 60 minutes of collections or more than ±5 minutes for the scheduled time points thereafter, this was considered a protocol deviation. ECG and vital signs were collected within the 10 minute period before the nominal time of blood collections. At screening, admission, and discharge, ECG, and vital signs were checked once per day. […] Clinical laboratory measurements were repeated after the last PK blood draw prior to clinic discharge. AEs were assessed by spontaneous reports by subjects, by examination of the nasal mucosa, by measuring vital signs, ECG, and clinical laboratory parameters.
Safety Assessments. […] ECG and vital signs was performed within the 10 minute period before the nominal time for post-dose blood collections. AEs were recorded from the start of study drug administration until clinic discharge.

Data set [3] in a line: Intranasal naltrexone formulation experiments (solubility, crystallization, discoloration, osmolality). Format: physicochemical. As to the method:
A series of experiments were performed to identify formulations of naltrexone which would make pharmaceutically appropriate intranasal products as disclosed herein.
A range of formulations were tested with the following observations. […] Several preparations were made at 30 mg/mL thereafter, which additionally contained fixed amounts of (dodecyl maltoside 0.25%) and NaCl (about 0.74%), and varying amounts of preservative (benzalkonium chloride, 0-0.02%) and stabilizing agent (EDTA, 0-0.3%). Crystallization behavior and discoloration were visually monitored. All of these formulations developed crystals when stored under refrigerated conditions. […] The 0.3% EDTA formulation appeared to resist yellowing for the longest period of time. Thereafter, a range of co-solvents were assessed for their potential to reduce crystallization of drug out of solution. Polyethylene glycol (PEG), propylene glycol, and benzyl alcohol were tested.

Setting [4] is: intranasal formulation with […] dodecyl maltoside.

In brackets after ≈: the same amount, converted by molar mass.

On to `CNS(=O)(=O)Cc1ccc2[nH]cc(CCN(C)C)c2c1` [sumatriptan], for which the “increase of total exposure (AUC)” value in data set [1] (intranasal formulation with […] dodecyl maltoside vs Imitrex nasal spray) is given as 32%. In data set [1] (setting [4]), the Tmax is 8 to 10 min and the “increase of maximum plasma concentration in comparison to Imitrex nasal spray” value is “almost four-fold”.

In the case of `CCCCCCCCCCCCO[C@@H]1O[C@H](CO)[C@@H](O[C@H]2O[C@H](CO)[C@@H](O)[C@H](O)[C@H]2O)[C@H](O)[C@H]1O` [Intravail®, 1-O-n-dodecyl-β-D-maltopyranoside], the “irritation in the rabbit eye model” value with rabbit eye is given as “non-irritating”.

On to `O=C1CC[C@@]2(O)[C@H]3Cc4ccc(O)c5c4[C@@]2(CCN3CC2CC2)[C@H]1O5` [naltrexone, 17-(cyclopropylmethyl)-4,5α-epoxy-3,14-dihydroxymorphinan-6-one], for which the subjects with dizziness in data set [2] (5 subjects, regardless of severity or attribution) amounted to 36%. Besides, the “subjects with AEs of the Nervous System Disorders SOC” value in data set [2] (7 subjects) is 50%. Further, the “subjects who experienced at least one AE” value in data set [2] (10 of 14 subjects, any dosing period, any relationship to drug) turned out to be 71%. The “discontinuation from the study due to AEs” value in data set [2] (hypertension, syncope, out-of-range pre-dose vital signs) is reported as “Three subjects were discontinued”. For the same compound, the “severe AEs” value in data set [2] (in vivo) was “No severe AEs were observed”. Moreover, the “appearance of 50 mg/mL preparation” value in data set [3] (room temperature, indicating incomplete dissolution) is listed as “cloudy”. Besides, in data set [3] (thermodynamic from solid, ambient temperature, read-out: solubility limit in solution), the solubility is approximately 40 mg/mL (≈ 117 mM).

The values above are taken from patent US20240408004A1, “COMPOSITIONS, DEVICES, AND METHODS FOR THE TREATMENT OF OVERDOSE AND REWARD-BASED DISORDERS” (priority 2018, published 2024).
